Laboratory results published in patent US20180009859A1, “PHARMACOLOGICAL MODULATORS OF GABAA RECEPTORS AND THEIR USE” (priority 2015, published 2018).
Several values for one entry are separate records, joined by “and”; a condition that tells them apart may be missing. Equal values may be shown once. Entries after “also recorded” stand apart in the source; their conditions may differ. Read-outs that look alike come from different tables or passages of the source. Bridge positions count the residues as written; N and C are the ends.

Tests used:
mice = conditions: injection into mouse brain
α1β2γ2 GABAA receptor [1] = target: T1, α1β2γ2 GABAA receptor (Rattus norvegicus, UniProt P62813+P63138); assay type: cell-based
T1 sequence (P63138 25-474): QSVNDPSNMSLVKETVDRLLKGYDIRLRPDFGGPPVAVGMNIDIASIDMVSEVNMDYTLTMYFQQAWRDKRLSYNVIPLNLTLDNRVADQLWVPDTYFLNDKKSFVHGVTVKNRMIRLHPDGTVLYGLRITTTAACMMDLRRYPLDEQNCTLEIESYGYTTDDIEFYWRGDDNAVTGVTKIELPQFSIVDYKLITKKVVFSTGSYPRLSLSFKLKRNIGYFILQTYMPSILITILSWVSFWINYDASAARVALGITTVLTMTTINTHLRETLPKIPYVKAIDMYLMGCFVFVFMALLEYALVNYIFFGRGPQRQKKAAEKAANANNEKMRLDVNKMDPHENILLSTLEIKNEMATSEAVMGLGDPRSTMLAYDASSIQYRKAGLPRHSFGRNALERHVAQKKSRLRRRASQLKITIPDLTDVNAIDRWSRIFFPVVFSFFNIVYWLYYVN
T1 sequence (P62813 28-455): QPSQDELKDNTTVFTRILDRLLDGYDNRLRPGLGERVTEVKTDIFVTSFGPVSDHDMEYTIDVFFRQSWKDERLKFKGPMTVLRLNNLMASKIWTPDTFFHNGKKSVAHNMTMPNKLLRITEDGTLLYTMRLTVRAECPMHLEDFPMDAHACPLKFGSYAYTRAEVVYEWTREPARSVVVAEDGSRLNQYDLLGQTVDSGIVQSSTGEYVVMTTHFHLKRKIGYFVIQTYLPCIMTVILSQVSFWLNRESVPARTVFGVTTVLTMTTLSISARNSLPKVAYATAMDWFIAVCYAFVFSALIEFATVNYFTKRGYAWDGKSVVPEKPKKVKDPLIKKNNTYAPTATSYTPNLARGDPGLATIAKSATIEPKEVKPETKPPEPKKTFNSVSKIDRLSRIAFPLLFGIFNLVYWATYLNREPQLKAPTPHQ
T1 sequence (P18508 39-466, further chain): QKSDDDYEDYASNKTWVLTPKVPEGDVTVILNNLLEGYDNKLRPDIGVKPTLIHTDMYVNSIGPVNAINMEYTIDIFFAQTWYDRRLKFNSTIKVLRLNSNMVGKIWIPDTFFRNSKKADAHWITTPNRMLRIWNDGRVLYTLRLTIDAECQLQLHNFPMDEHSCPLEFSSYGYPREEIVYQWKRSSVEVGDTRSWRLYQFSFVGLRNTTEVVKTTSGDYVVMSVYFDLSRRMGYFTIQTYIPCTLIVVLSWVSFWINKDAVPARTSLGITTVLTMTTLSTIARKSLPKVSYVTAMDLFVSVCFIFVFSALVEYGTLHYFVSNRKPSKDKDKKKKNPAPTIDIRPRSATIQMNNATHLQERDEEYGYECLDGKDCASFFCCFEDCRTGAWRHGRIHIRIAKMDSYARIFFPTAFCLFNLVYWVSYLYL

α1β2γ2 GABAA receptor [2] = target: T1, α1β2γ2 GABAA receptor; assay type: cell-based; conditions: 5 μM muscimol + 100 nM sMmTX1, n=3; control 48±5s
hippocampal neurons [3] = assay type: cell-based, mouse
hippocampal neurons [4] = test: Calcium imaging of hippocampal neurons (Ca^2+ oscillations); assay type: cell-based, rat
α1β2-containing receptor = α1β2-containing receptor (Rattus norvegicus, UniProt P62813+P63138); assay type: cell-based; conditions: 100 nM sMmTX1, −70 mV
α1β2-containing receptor, sequence (P63138 25-474): as the sequence (P63138 25-474) above
α1β2-containing receptor, sequence (P62813 28-455): as the sequence (P62813 28-455) above

α1EKβ2γ2 receptor mutant = assay type: cell-based, rat

For “LTCKTCPFTTCPNSESCPGGQSICYQRKWEEHRGERIERRCVANCPAFGSHDTSLLCCTRDNCN (disulfide 3-24, 6-11, 17-41, 45-57, 58-63) [sMmTX1]”, the LD50 (mice) was 0.013 mg/kg, the behavioral signs (mice) was “identical mouse behavioral phenotype” and the “alteration of current elicited by 50 μM muscimol” value (α1β2γ2 GABAA receptor [1]) was “not significantly altered”. The “factor of current increase” value (α1β2γ2 GABAA receptor [1]; 0.3 μM muscimol + 100 nM sMmTX1, n=5) was 2.7±0.18, the “factor of current increase” value (α1β2γ2 GABAA receptor [1]; 3 μM muscimol + 10 nM toxin) was 1.28±0.12 and the “factor of current increase” value (α1β2γ2 GABAA receptor [1]; 3 μM muscimol + 100 nM toxin) was 1.33±0.13. For the same sequence, the “effect on currents and desensitization” value (α1β2γ2 GABAA receptor [1]; 3 μM muscimol + 300 nM sMmTX1, −70 mV) was “currents are potentiated and receptor desensitization tends to accelerate”, the “factor of current increase” value (α1β2γ2 GABAA receptor [1]; 3 μM muscimol + 300 nM toxin) was 1.60±0.11 and the “time constant of receptor desensitization” value (α1β2γ2 GABAA receptor [2]) was 25 ± 3 s and 25 ± 2 s. The “frequency of action potentials” value (hippocampal neurons [3]; 100 nM sMmTX1, current clamp, n=5) was “substantial increase; also recorded: significantly increased”, the “action potential amplitude and time-to-peak” value (hippocampal neurons [3]; 100 nM sMmTX1, n=5) was “do not reveal a significant change” and the “amplitude of mini inhibitory postsynaptic currents (mIPSCs)” value (hippocampal neurons [3]; 300 nM muscimol and 100 nM sMmTX1, with TTX, DNQX, APV, n=3) was “reduces the amplitude”. For the same sequence, the “currents elicited by 30 ms puffs of 300 nM muscimol” value (hippocampal neurons [3]; continuous application of 100 nM sMmTX1) was “induces a decrease”, the “duration of burst-like postsynaptic currents” value (hippocampal neurons [3]; sMmTX1, voltage clamp, n=5) was “considerable increase” and the “initial effect on Ca^2+ oscillations” value (hippocampal neurons [4]) was “short but substantial inhibition”. For the same sequence, the “frequency of Ca^2+ spikes compared to cells perfused with extracellular saline solution” value (hippocampal neurons [4]; 100 nM sMmTX1 alone, n=9) was 105.8±4.0%, the “sensitivity of the receptor to toxin” value (α1β2-containing receptor) was “sensitive” and the “effect on macroscopic conductance” value (α1EKβ2γ2 receptor mutant; 300 nM muscimol) was “still reduces the macroscopic conductance”. For the same sequence, the “effect on mutant receptor desensitization” value (α1EKβ2γ2 receptor mutant; 5 μM muscimol + 100 nM sMmTX1, n=4) was “does not increase mutant receptor desensitization”.
